Literature values, collected in publication PMC3738054 (Journal of immunology (Baltimore, Md. : 1950), 2013).

System: cerebral malaria
Conditions: oral inhibitor, murine model of cerebral malaria

c1cc(-c2nc3ccc(OCCCN4CCCC4)cc3o2)ccc1OCCCN1CCCC1 [E6446]
efficacy in mitigating inflammatory injury: has shown efficacy
